Assay results as given in publication PMC6749450, “Probing the Effects of Pyrimidine Functional Group Switches on Acyclic Fleximer Analogues for Antiviral Activity” (Molecules, 2019).

How the values were obtained:
[1] = tested on: Ebola virus (EBOV); test: microbe, parasite or virus in culture; assay type: cell-based, EBOV-Makona; conditions: for EC50: Zaire ebolavirus, Huh-7, 72 h, read-out: EC50: effective concentration showing 50% inhibition of virus-expressed ZsGreen fluorescence
[2] = tested on: filoviruses; conditions: cited from earlier work
[3] = tested on: flaviviruses; conditions: ref unpublished results; cited from earlier work
[4] = tested on: coronaviruses; conditions: cited from earlier work

In the case of `COc1nc(N)ncc1-c1cn(COCCOC(C)=O)cn1` [1-Ac], the “activity against EBOV (in words)” value [1] is reported as “not active against EBOV” and the EC50 [1] is reported as > 100 µM.
`CCC(=O)OCCOCn1cnc(-c2cnc(N)nc2OC)c1` [1-EtAc, 2-((4-(2-Amino-4-methoxypyrimidin-5-yl)-1H-imidazol-1-yl)methoxy)ethyl propionate] gave an EC50 [1] of 62.2 ± 19 µM.
With `COc1nc(N)ncc1-c1cn(COCCOC(=O)C(C)C)cn1` [1-^iPrAc, 2-((4-(2-Amino-4-methoxypyrimidin-5-yl)-1H-imidazol-1-yl)methoxy)ethyl isobutyrate] the EC50 [1] was > 100 µM.
`COc1nc(N)ncc1-c1cn(COCCOC(=O)C(C)(C)C)cn1` [1-^tBuAc, 2-((4-(2-Amino-4-methoxypyrimidin-5-yl)-1H-imidazol-1-yl)methoxy)ethyl pivalate] gave an EC50 [1] of 7.21 ± 1.85 µM.
Compound `COc1ncc(-c2cn(COCCOC(C)=O)cn2)c(OC)n1` [2-Ac] has an EC50 [1] of 16.3 ± 11.5 µM.
With `CCC(=O)OCCOCn1cnc(-c2cnc(OC)nc2OC)c1` [2-EtAc, 2-((4-(2,4-Dimethoxypyrimidin-5-yl)-1H-imidazol-1-yl)methoxy)ethyl propionate] the EC50 [1] was > 100 µM.
With `COc1ncc(-c2cn(COCCOC(=O)C(C)C)cn2)c(OC)n1` [2-^iPrAc, 2-((4-(2,4-Dimethoxypyrimidin-5-yl)-1H-imidazol-1-yl)methoxy)ethyl isobutyrate] the EC50 [1] was 32 ± 9.12 µM.
Compound `COc1ncc(-c2cn(COCCOC(=O)C(C)(C)C)cn2)c(OC)n1` [2-^tBuAc, 2-((4-(2,4-Dimethoxypyrimidin-5-yl)-1H-imidazol-1-yl)methoxy)ethyl pivalate] has an EC50 [1] of 81.3 ± 10.2 µM.
With `COc1ncncc1-c1cn(COCCOC(C)=O)cn1` [3-Ac, 2-((4-(4-Methoxypyrimidin-5-yl)-1H-imidazol-1-yl)methoxy)ethyl acetate] the EC50 [1] was 35.4 ± 20.4 µM.
`CCC(=O)OCCOCn1cnc(-c2cncnc2OC)c1` [3-EtAc, 2-((4-(4-Methoxypyrimidin-5-yl)-1H-imidazol-1-yl)methoxy)ethyl propionate] gave an EC50 [1] of 51.9 ± 19.6 µM.
In the case of `COc1ncncc1-c1cn(COCCOC(=O)C(C)C)cn1` [3-^iPrAc, 2-((4-(4-Methoxypyrimidin-5-yl)-1H-imidazol-1-yl)methoxy)ethyl isobutyrate], the EC50 [1] is reported as 38.3 ± 28.2 µM.
`COc1ncncc1-c1cn(COCCOC(=O)C(C)(C)C)cn1` [3-^tBuAc, 2-((4-(4-Methoxypyrimidin-5-yl)-1H-imidazol-1-yl)methoxy)ethyl pivalate] showed an EC50 [1] of 51.4 ± 10 µM.
For `CC(=O)OCCOCn1cnc(-c2cnc(N)nc2)c1` [4-Ac, 2-((4-(2-Aminopyrimidin-5-yl)-1H-imidazol-1-yl)methoxy)ethyl acetate], the EC50 [1] was 52.9 ± 28.2 µM.
For `CCC(=O)OCCOCn1cnc(-c2cnc(N)nc2)c1` [4-EtAc, 2-((4-(2-Aminopyrimidin-5-yl)-1H-imidazol-1-yl)methoxy)ethyl propionate], the EC50 [1] was > 100 µM.
With `CC(C)C(=O)OCCOCn1cnc(-c2cnc(N)nc2)c1` [4-^iPrAc, 2-((4-(2-Aminopyrimidin-5-yl)-1H-imidazol-1-yl)methoxy)ethyl isobutyrate] the EC50 [1] was 54 ± 23.7 µM.
`CC(C)(C)C(=O)OCCOCn1cnc(-c2cnc(N)nc2)c1` [4-^tBuAc, 2-((4-(2-Aminopyrimidin-5-yl)-1H-imidazol-1-yl)methoxy)ethyl pivalate] gave an EC50 [1] of 34.4 ± 20 µM.
For `CC(=O)OCCOCn1cnc(-c2cncnc2N)c1` [5-Ac, 2-((4-(4-Aminopyrimidin-5-yl)-1H-imidazol-1-yl)methoxy)ethyl acetate], the EC50 [1] was > 100 µM.
In the case of `CCC(=O)OCCOCn1cnc(-c2cncnc2N)c1` [5-EtAc, 2-((4-(4-Aminopyrimidin-5-yl)-1H-imidazol-1-yl)methoxy)ethyl propionate], the EC50 [1] is reported as > 100 µM.
With `CC(C)C(=O)OCCOCn1cnc(-c2cncnc2N)c1` [5-^iPrAc, 2-((4-(4-Aminopyrimidin-5-yl)-1H-imidazol-1-yl)methoxy)ethyl isobutyrate] the EC50 [1] was > 100 µM.
`CC(C)(C)C(=O)OCCOCn1cnc(-c2cncnc2N)c1` [5-^tBuAc, 2-((4-(4-Aminopyrimidin-5-yl)-1H-imidazol-1-yl)methoxy)ethyl pivalate] showed an EC50 [1] of 72.3 ± 18.7 µM.
For `COc1nc(N)ncc1-c1cn(COCCO)cn1` [compound 1], the “antiviral activity against filoviruses” value [2] is listed as “low micromolar activity”, the “antiviral activity against flaviviruses” value [3] is listed as “low micromolar activity” and the “antiviral activity against coronaviruses” value [4] is listed as “low micromolar activity”. It also gave an EC50 [1] of 1.49 ± 0.98 µM.
Work on `COc1ncc(-c2cn(COCCO)cn2)c(OC)n1` [compound 2] yielded an EC50 [1] of 23.4 ± 20.3 µM.
For `COc1ncncc1-c1cn(COCCO)cn1` [compound 3, 2-((4-(4-Methoxypyrimidin-5-yl)-1H-imidazol-1-yl)methoxy)ethan-1-ol], the EC50 [1] was 78.9 ± 17.1 µM.
With `Nc1ncc(-c2cn(COCCO)cn2)cn1` [compound 4, 2-((4-(2-Aminopyrimidin-5-yl)-1H-imidazol-1-yl)methoxy)ethan-1-ol] the “activity against EBOV (in words)” value [1] was “did not display any activity against EBOV” and the EC50 [1] was > 100 µM.
In the case of `Nc1ncncc1-c1cn(COCCO)cn1` [compound 5, 2-((4-(4-Aminopyrimidin-5-yl)-1H-imidazol-1-yl)methoxy)ethan-1-ol], the “activity against EBOV (in words)” value [1] is reported as “did not display any activity against EBOV” and the EC50 [1] is reported as > 100 µM.
